Assay results: ChEMBL document CHEMBL4138197, “Design, synthesis and pharmacological evaluation of N-(5-chloro-2,4-dihydroxybenzoyl)-(R)-N-arylmethyl-1,2,3,4-tetrahydro-3-isoquinolinecarboxamides as potent Hsp90 inhibitors” (Eur J Med Chem, 2018)
Calls of active or inactive are those of the source. No cut-off for these calls is given here.

Columns and labels:
[1] = target: T1, Heat shock protein HSP90 (Homo sapiens) (UniProt P07900+P08238); test: Inhibition of HSP90 in human MDA-MB-453 cells assessed as downmodulation of IKKalpha expression at 0.25 uM up to 48 hrs by Western blot analysis; assay type: cell-based
[2] = target: T1, Heat shock protein HSP90 (Homo sapiens); test: Inhibition of HSP90 in human MDA-MB-453 cells assessed as suppression of TNFalpha-induced NFkappaB activation by measuring reduction in IKBalpha degradation at 0.25 uM after 24 hrs by Western blot analysis; assay type: cell-based
MDA-MB-453 [3] = test: Induction of apoptosis in human MDA-MB-453 cells assessed as increase in cleaved caspase3 activity at 0.25 uM up to 48 hrs in presence of z-VAD-fmk by Western blot analysis; assay type: functional, cell-based
MDA-MB-453 [4] = test: Induction of apoptosis in human MDA-MB-453 cells assessed as early apoptotic cells at 0.25 uM after 48 hrs by Annexin V-FITC/propidium iodide-staining based flow cytometry (reference value: 1.65%); assay type: functional
[5] = target: Heat shock protein HSP 90-alpha (Homo sapiens) (UniProt P07900); test: Inhibition of HSP90alpha in human MDA-MB-453 cells assessed as upregulation of HSP70 levels by Western blot analysis; assay type: cell-based
NCI-H1299 = test: Antiproliferative activity against human NCI-H1299 cells by SRB assay; assay type: functional, cell-based
MDA-MB-453 [6] = test: Induction of apoptosis in human MDA-MB-453 cells after 48 hrs by Annexin V-FITC/propidium iodide-staining based flow cytometry; assay type: functional, cell-based
[7] = target: Heat shock protein HSP 90-alpha (Homo sapiens) (UniProt P07900); test: Inhibition of HSP90alpha in human MDA-MB-453 cells assessed as down-regulation of CHK1 levels by Western blot analysis; assay type: cell-based
HCT-116 = test: Antiproliferative activity against human HCT116 cells by SRB assay; assay type: functional, cell-based
MDA-MB-453 [8] = test: Effect on Bax protein expression in human MDA-MB-453 cells at 0.25 uM incubated for 6 to 48 hrs by Western blot analysis; assay type: functional, cell-based
[9] = target: Heat shock protein HSP 90-alpha (Homo sapiens) (UniProt P07900); test: Binding affinity to HSP90alpha in HEK293T cells assessed as induction of thermal stabilisation of HSP90alpha pre-incubated for 3 hrs followed by heating at 37 to 63 degC for 3 mins then subsequent cooling for 3 mins by Western blot-based CESTA relative to beta actin; assay type: cell-based
U-251 = test: Antiproliferative activity against human U251 cells by SRB assay; assay type: functional, cell-based
[10] = target: T1, Heat shock protein HSP90 (Homo sapiens); test: Inhibition of HSP90 in human MDA-MB-453 cells assessed as downmodulation of IKKgamma expression at 0.25 uM up to 48 hrs by Western blot analysis; assay type: cell-based
MDA-MB-453 [11] = test: Induction of apoptosis in human MDA-MB-453 cells assessed upregulation of bid expression at 0.25 uM by Western blot analysis; assay type: functional, cell-based; conditions: TDE = time-dependent effect
[12] = target: T2, Inhibitor of nuclear factor kappa-B kinase subunit alpha (Homo sapiens) (UniProt O15111); test: Induction of IKKalpha association to hsp27 in human MDA-MB-453 cells at 0.25 uM after 6 hrs by immunoprecipitation and Western analysis; assay type: cell-based
T2 sequence (whole entry): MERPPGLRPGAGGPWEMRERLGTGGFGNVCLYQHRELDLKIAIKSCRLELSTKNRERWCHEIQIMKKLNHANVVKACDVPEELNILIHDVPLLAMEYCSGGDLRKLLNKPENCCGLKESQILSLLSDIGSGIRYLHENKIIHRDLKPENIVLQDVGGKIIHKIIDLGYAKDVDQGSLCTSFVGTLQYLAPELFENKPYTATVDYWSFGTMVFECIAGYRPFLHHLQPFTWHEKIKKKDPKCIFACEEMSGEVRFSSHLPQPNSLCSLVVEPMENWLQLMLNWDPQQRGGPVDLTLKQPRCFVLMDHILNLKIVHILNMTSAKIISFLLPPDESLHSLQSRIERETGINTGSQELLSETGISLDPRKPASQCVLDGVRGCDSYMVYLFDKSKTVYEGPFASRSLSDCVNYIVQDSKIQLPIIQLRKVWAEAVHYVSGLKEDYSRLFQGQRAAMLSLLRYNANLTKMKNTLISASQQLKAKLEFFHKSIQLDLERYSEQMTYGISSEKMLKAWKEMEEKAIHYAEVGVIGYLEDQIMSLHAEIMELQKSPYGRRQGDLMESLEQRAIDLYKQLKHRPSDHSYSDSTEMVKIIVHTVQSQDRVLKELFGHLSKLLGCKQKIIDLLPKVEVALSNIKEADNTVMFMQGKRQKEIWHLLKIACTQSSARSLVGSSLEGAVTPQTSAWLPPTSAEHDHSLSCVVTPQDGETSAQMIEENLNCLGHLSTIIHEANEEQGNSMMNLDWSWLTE

MDA-MB-453 [13] = test: Induction of apoptosis in human MDA-MB-453 cells assessed as necrotic cells at 4 uM after 48 hrs by Annexin V-FITC/propidium iodide-staining based flow cytometry (reference value: 0.01%); assay type: functional
MDA-MB-453 [14] = test: Induction of apoptosis in human MDA-MB-453 cells assessed upregulation of bim expression at 0.25 uM by Western blot analysis; assay type: functional, cell-based; conditions: TDE = time-dependent effect
MDA-MB-453 [15] = test: Induction of apoptosis in human MDA-MB-453 cells assessed as late apoptotic cells at 1 uM after 48 hrs by Annexin V-FITC/propidium iodide-staining based flow cytometry (reference value: 3.40%); assay type: functional
MDA-MB-453 [16] = test: Induction of apoptosis in human MDA-MB-453 cells assessed as late apoptotic cells at 4 uM after 48 hrs by Annexin V-FITC/propidium iodide-staining based flow cytometry (reference value: 3.40%); assay type: functional
MDA-MB-453 [17] = test: Induction of apoptosis in human MDA-MB-453 cells assessed as late apoptotic cells at 0.25 uM after 48 hrs by Annexin V-FITC/propidium iodide-staining based flow cytometry (reference value: 3.40%); assay type: functional
SK-OV-3 = test: Antiproliferative activity against human SKOV3 cells by SRB assay; assay type: functional, cell-based
MDA-MB-453 [18] = test: Induction of apoptosis in human MDA-MB-453 cells assessed downregulation of bcl2 expression at 0.25 uM at 48 hrs by Western blot analysis; assay type: functional, cell-based
A549 = test: Antiproliferative activity against human A549 cells after 72 hrs by SRB assay; assay type: functional, cell-based; conditions: A549, 72 h
[19] = target: T1, Heat shock protein HSP90 (Homo sapiens); test: Inhibition of HSP90 in human MDA-MB-453 cells assessed as downmodulation of IKKbeta expression at 0.25 uM up to 48 hrs by Western blot analysis; assay type: cell-based
MDA-MB-453 [20] = test: Cell cycle arrest in human MDA-MB-453 cells assessed as reduction in accumulation at S phase at 0.25 to 1 uM after 12 hrs by propidium iodide-staining based flow cytometry; assay type: functional
[21] = target: Heat shock protein HSP 90-alpha (Homo sapiens) (UniProt P07900); test: Inhibition of HSP90alpha in human MDA-MB-453 cells assessed as down-regulation of AKT levels by Western blot analysis; assay type: cell-based
MDA-MB-231 = test: Antiproliferative activity against human MDA-MB-231 cells by SRB assay; assay type: functional, cell-based
MDA-MB-453 [22] = test: Induction of apoptosis in human MDA-MB-453 cells assessed as necrotic cells at 1 uM after 48 hrs by Annexin V-FITC/propidium iodide-staining based flow cytometry (reference value: 0.01%); assay type: functional
SW480 = test: Antiproliferative activity against human SW480 cells by SRB assay; assay type: functional, cell-based

Structure (SMILES): O=C(NCc1ccncc1)[C@H]1Cc2ccccc2CN1C(=O)c1cc(Cl)c(O)cc1O
- inhibition [1]: Active
- inhibition [2]: Active
- Activity (MDA-MB-453 [3]): inactive
- Activity (MDA-MB-453 [4]): 4.26%
- inhibition [5]: Dose-dependent effect
- Activity (NCI-H1299): Active
- Activity (MDA-MB-453 [6]): Dose-dependent effect
- inhibition [7]: Dose-dependent effect
- Activity (HCT-116): Active
- Activity (MDA-MB-453 [8]): inactive
- Activity [9]: Dose-dependent effect
- Activity (U-251): Active
- inhibition [10]: Active
- Activity (MDA-MB-453 [11]): Tde
- Activity [12]: Active
- Activity (MDA-MB-453 [13]): 0.54%
- Activity (MDA-MB-453 [14]): Tde
- Activity (MDA-MB-453 [15]): 15.11%
- Activity (MDA-MB-453 [16]): 18.32%
- Activity (MDA-MB-453 [17]): 4.19%
- Activity (SK-OV-3): Active
- Activity (MDA-MB-453 [18]): Active
- IC50 (A549): 420 nM
- inhibition [19]: Active
- Activity (MDA-MB-453 [20]): Active
- inhibition [21]: Dose-dependent effect
- Activity (MDA-MB-231): Active
- Activity (MDA-MB-453 [22]): 0.03%
- Activity (SW480): Active
